{"source": "patent US20120046321A1", "about": "“METHODS OF TREATING ATRIAL FIBRILLATION WITH P38 INHIBITOR COMPOUNDS” (INTERMUNE, INC., priority 2005, published 2012)", "origin": "cited, not measured here", "test_system": "canine model, VTP-induced CHF", "details": "Li et al., Circulation 2001; cited from earlier work", "data": [{"smiles": "CCOC(=O)[C@H](CCc1ccccc1)N[C@@H](C)C(=O)N1CCC[C@H]1C(=O)O", "note": "[enalapril]", "values": [{"measurement": "Ang II concentration", "result": "reduction"}, {"measurement": "Arrhythmogenic atrial remodeling", "result": "less"}, {"measurement": "ERK activation", "result": "reduction"}]}]}
